We go through 27 compounds from the supplement of paper PMC12613149.

A short description of data set [1]: reversed-phase LC retention time (C18, 15 min MeOH gradient); higher = more hydrophobic / later elution. On the procedure: (§1)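 Reference mixture of environmental contaminants analysed by RP-LC (BEH C18, 50 °C; ESI+ with water/MeOH plus formic acid and ammonium formate, ESI- with ammonium bicarbonate) coupled to a timsTOF Pro 2 with trapped ion mobility in nitrogen (ramp/accumulation 100 ms). CCS was calibrated with Agilent tune mix (CCS compendium) and averaged over five injections at 0.5-500 ng/mL. The table reports the lowest-CCS (putative monomer) peak; retention times are on the same gradient.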

Data set [2] can be described thus: collision cross section (TIMS, N2 drift gas) of the primary ion; higher = larger gas-phase ion size. On the procedure: as §1
Where [3] appears, read: ionization mode: ESI+, ion species: [M+H]+.
Setting [4] is: ionization mode: ESI-, ion species: [M-H]-.
[5] abbreviates: ionization mode: ESI+, ion species: [M]+.

Turning to `OCCN1CCN(CC/C=C2/c3ccccc3Sc3ccc(C(F)(F)F)cc32)CC1` [Flupentixol_1], the “reversed-phase LC retention time” value in data set [1] (setting [3]) is 14.9 min. Moreover, in data set [2] (setting [3]), the collision cross section was 200.91 Å².
In the case of `CC(=O)N(CC(O)CO)c1c(I)c(C(=O)NCC(O)CO)c(I)c(C(=O)NCC(O)CO)c1I` (stereo not drawn) [Iohexol], the “reversed-phase LC retention time” value in data set [1] (setting [3]) is 5.4 min; in data set [1] (setting [4]) it was 5.47 min. For the same compound, the results for the collision cross section in data set [2] (setting [3]) and in data set [2] (setting [4]) were 226.32 Å² and 220.12 Å², respectively.
For `O=C(CCc1ccc(O)cc1)c1c(O)cc(O)cc1O` [Phloretin] the same measures were 11.9 min, 10.6 min, 163.11 Å² and 163.45 Å².
Consider `Nc1nc(NC2CC2)c2ncn([C@H]3C=C[C@@H](CO)C3)c2n1` [Abacavir], for which, in data set [1] (setting [3]), the “reversed-phase LC retention time” value is 8 min. The compound also showed a collision cross section in data set [2] (setting [3]) of 168.31 Å².
Taken in the same sequence, the figures for `CN1C(=O)CC[C@H]1c1cccnc1` [Cotinine] were 3.34 min and 143.26 Å².
For `CCCCCCCCCCCC[N+](C)(C)C` [Dodecyltrimethylammonium], the “reversed-phase LC retention time” value in data set [1] (setting [5]) amounted to 15.2 min. Also, the collision cross section in data set [2] (setting [5]) was 176.31 Å².
Take `CCC1OC(=O)C(C)C(OC2CC(C)(OC)C(O)C(C)O2)C(C)C(OC2OC(C)CC(N(C)C)C2O)C(C)(O)CC(C)CN(C)C(C)C(O)C1(C)O` (stereo not drawn) [Azithromycin]: the “reversed-phase LC retention time” value in data set [1] (setting [3]) was found to be 10.9 min. This compound also came in with a collision cross section in data set [2] (setting [3]) of 264.86 Å².
On to `CC(C)(C)c1cc(-n2nc3ccc(Cl)cc3n2)c(O)c(C(C)(C)C)c1` [UV-327], for which, in data set [1] (setting [4]), the “reversed-phase LC retention time” value was found to be 22 min. In addition, the collision cross section in data set [2] (setting [4]) was 199.94 Å².
For the compound `CCC(C(N)=O)(C(N)=O)c1ccccc1` [Phenylethylmalonamide], the “reversed-phase LC retention time” value in data set [1] (setting [3]) worked out at 7.73 min. Further, the collision cross section in data set [2] (setting [3]) was 142.07 Å².
`O=C1CN(/N=C/c2ccc([N+](=O)[O-])o2)C(=O)N1` [Nitrofurantoin]: the “reversed-phase LC retention time” value in data set [1] (setting [4]) worked out at 6.35 min. In data set [2] (setting [4]), this compound showed a collision cross section of 149.37 Å².
In the case of `COc1cc(Cl)c(OC)cc1N` [4-Chloro-2,5-dimethoxyaniline], the “reversed-phase LC retention time” value in data set [1] (setting [3]) worked out at 10.3 min. In data set [2] (setting [3]), this compound came in with a collision cross section of 143.89 Å².
Taken in the same sequence, the figures for `CCCNCCOc1c(Cl)cc(Cl)cc1Cl` were 12.1 min and 162.11 Å².
With `COCCOCCOCCO` [2-(2-(2-Methoxyethoxy)ethoxy)ethanol], in data set [1] (setting [3]), the “reversed-phase LC retention time” value was 10.6 min. In addition, in data set [2] (setting [3]), the collision cross section was 135.18 Å².
For `CC1(C)CON(Cc2ccccc2Cl)C1=O` [Clomazon] the same measures were 13.5 min and 146.86 Å².
With `C[C@H](O)C(=O)Nc1c(I)c(C(=O)NC(CO)CO)c(I)c(C(=O)NC(CO)CO)c1I` [Iopamidol], the results for the “reversed-phase LC retention time” value in data set [1] (setting [3]) and in data set [1] (setting [4]) were 5.52 min and 3.71 min, respectively. The collision cross section in data set [2] (setting [3]) is reported as 216.64 Å²; in data set [2] (setting [4]), 206.33 Å².
As to `O=C(O)Cc1ccc(S(=O)(=O)O)cc1` [(4-Sulfophenyl)acetic acid], the “reversed-phase LC retention time” value in data set [1] (setting [4]) was 0.96 min. The compound further had a collision cross section in data set [2] (setting [4]) of 135.07 Å².
As to `O=C(O)c1cn(C2CC2)c2cc(N3CCNCC3)c(F)cc2c1=O` [Ciprofloxacin], in data set [1] (setting [3]), the “reversed-phase LC retention time” value was determined as 8.22 min. In data set [2] (setting [3]), the collision cross section was 175.82 Å².
On to `COc1nc(C)nc(NC(=O)NS(=O)(=O)c2ccccc2Cl)n1` [Chlorsulfuron], for which the “reversed-phase LC retention time” value in data set [1] (setting [3]) was 12.1 min; in data set [1] (setting [4]), 9.09 min. The collision cross section in data set [2] (setting [3]) is recorded as 177.23 Å²; in data set [2] (setting [4]), 177.5 Å².
Turning to `Nc1ccc2c(n1)[nH]c1ccccc12` [2-Amino-9H-pyrido[2,3-b]indole (AalphaC)], in data set [1] (setting [4]), the “reversed-phase LC retention time” value is 12 min. The collision cross section in data set [2] (setting [4]) amounted to 135.27 Å².
Consider `CNC1=C(c2cccc(C(F)(F)F)c2)C(=O)C(c2ccccc2)O1` (stereo not drawn) [Flurtamone], for which the results for the “reversed-phase LC retention time” value in data set [1] (setting [3]) and in data set [1] (setting [4]) were 13.9 min and 14.2 min, respectively. Moreover, the collision cross section stood at 179.28 Å² in data set [2] (setting [3]) and 175.08 Å² in data set [2] (setting [4]).
For `CC(C)c1cc(C(C)(C)c2ccc(O)c(C(C)C)c2)ccc1O` [Bisphenol G], in data set [1] (setting [4]), the “reversed-phase LC retention time” value was 16.8 min. Moreover, the collision cross section in data set [2] (setting [4]) amounted to 187.67 Å².
Taken in the same sequence, the figures for `O=C(O)C(F)(F)C(F)(F)C(F)(F)C(F)(F)C(F)(F)C(F)(F)C(F)(F)C(F)(F)C(F)(F)C(F)(F)C(F)(F)C(F)(F)C(F)(F)F` [Perfluorotetradecanoic acid] were 17.6 min and 209.23 Å².
Regarding `CCCCOC(=O)c1ccc(O)cc1` [Butyl 4-hydroxybenzoate], the “reversed-phase LC retention time” value in data set [1] (setting [4]) was found to be 14.2 min. Further, in data set [2] (setting [4]), the collision cross section is 147.76 Å².
Taken in the same sequence, the figures for `CCCC(C)C1(CC)C(=O)NC(=O)NC1=O` (stereo not drawn) [Pentobarbital] were 12.2 min and 150.46 Å².
On to `CC1COC(Cn2cncn2)(c2ccc(Oc3ccc(Cl)cc3)cc2Cl)O1` (stereo not drawn) [Difenoconazole], for which the “reversed-phase LC retention time” value in data set [1] (setting [3]) is 16.1 min. This compound also showed a collision cross section in data set [2] (setting [3]) of 202.11 Å².
Regarding `O=C1Nc2ccc(Cl)cc2C(c2ccccc2Cl)=NC1O` (stereo not drawn) [Lorazepam], the “reversed-phase LC retention time” value stood at 13.2 min in data set [1] (setting [3]) and 13.5 min in data set [1] (setting [4]). Further, the collision cross section was found to be 168.84 Å² in data set [2] (setting [3]) and 167.96 Å² in data set [2] (setting [4]).
Taken in the same sequence, the figures for `CC(C)c1c(C(=O)Nc2ccccc2)c(-c2ccccc2)c(-c2ccc(F)cc2)n1CCC(O)CC(O)CC(=O)O` (stereo not drawn) [Atorvastatin] were 15.1 min, 14.6 min, 232.51 Å² and 228.86 Å².
